Assays:
[1] = molecular target: T1, NTCP (Na+ taurocholate cotransporting peptide), HepG2-hNTCP-C4 cell line (Homo sapiens, UniProt Q14973); assay: Inhibition of binding between FITC-labelled PreS1 and NTCP expressing cell line, flow cytometry; conditions: for ability to inhibit the binding between PreS1 and NTCP expressing cell lines (bile acid series) / relative fluorescence intensity compared to Comparative Example 1 (LCA): compound 50 µM; for ability to inhibit the binding between PreS1 and NTCP expressing cell lines (bile acid series) / effect of inhibiting the binding between PreS1 and NTCP expressing cell lines by treatment concentration: 20 nM PreS1; for effect of inhibiting the binding between PreS1 and NTCP expressing cell lines by treatment concentration: 0.2 μM, 2 μM, 10 μM, 50 μM; for relative fluorescence intensity compared to Comparative Example 1 (LCA): 20 nM PreS1, 4° C., 2 hours, lower = more inhibited binding
T1 construct: expressed in transfected cells; host or cells: HepG2-hNTCP-C4 (HepG2 cells expressing human NTCP)
T1 sequence (Q14973 1-349): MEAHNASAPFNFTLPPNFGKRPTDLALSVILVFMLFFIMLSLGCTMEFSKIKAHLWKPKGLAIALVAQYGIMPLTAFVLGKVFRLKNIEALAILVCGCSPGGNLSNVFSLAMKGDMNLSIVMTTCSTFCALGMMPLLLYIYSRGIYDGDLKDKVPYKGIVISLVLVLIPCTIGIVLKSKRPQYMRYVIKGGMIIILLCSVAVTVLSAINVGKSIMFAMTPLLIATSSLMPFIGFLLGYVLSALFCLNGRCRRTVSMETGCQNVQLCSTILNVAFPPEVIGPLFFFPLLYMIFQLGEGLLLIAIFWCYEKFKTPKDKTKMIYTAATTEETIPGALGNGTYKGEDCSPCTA
Method in brief: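 HepG2-hNTCP-C4 cells were pre-chilled at 4 °C for 30 min, then exposed to 20 nM Myr-PreS1-Lys(FITC) plus compound at 4 °C for 2 h, mostly at 50 μM, with some series at 0.2–50 μM or 2–50 μM. After washes and EDTA detachment, cell-bound green fluorescence was read by flow cytometry.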

[2] = molecular target: T2, NTCP, HepG2-hNTCP-C4 cell line (Homo sapiens, UniProt Q14973); assay: Inhibition of binding of fluorescent-labeled PreS1 peptide, fluorescence imaging; conditions: 10 M and 50 PM; compared to the HBV-induced group solely treated with PreS1
T2 construct: expressed in transfected cells; host or cells: HepG2-hNTCP-C4 (HepG2 cells expressing human NTCP)
T2 sequence (Q14973 1-349): T1 sequence (Q14973 1-349)
Method: Specifically, after placing a cover slip coated with fibronectin on a 24 well plate, a HepG2-hNTCP-C4 cell line, which is a cell line expressing NTCP, was seeded at a density of 1×10^5, followed by incubation overnight. Thereafter, 20 nM PreS1 and the compounds in Examples 1, 8, 9, and 44 were treated by diluting in culture media at 4° C. at a concentration of 50 μM, respectively. After 2 hours, the media were suctioned, followed by washing twice with 4° C. PBS, fixation with 4% paraformaldehyde for 20 minutes, and washing twice with 4° C. PBS. Thereafter, 300 nM 4′,6-diamidino-2-phenylindole (DAPI) was treated to stain the nucleus for 20 minutes, and then washing was followed once with distilled water (DW) and twice with 4° C. PBS. Subsequently, 10 μl of mounting media was loaded onto a slide glass, and a cover slip was placed thereon for observation under a fluorescence microscope.
Green fluorescence may be observed when PreS1 binds to a cell line expressing NTCP by FITC conjugated to PreS1.

Jurkat cell line = assay: Cytotoxicity, WST-1 cell viability; assay type: cell-based, human; conditions: 0.2 μM~50 μM, 24 and 48 hours
Method: For Example 1 (LCA-Ile), Example 44 (LCA-Val), Example 2 (UDCA-Ile), and Example 3 (UDCA-Val), cytotoxicity was evaluated in the Jurkat cell line, a human T lymphocyte-derived cell line. Jurkat cell lines were seeded at a density of 5×10^4 on a 96 well plate for overnight incubation, and each compound was treated at a concentration of 0.2 μM~50 μM for 24 or 48 hours. WST-1, a reagent for measuring cell viability, was loaded at 10 μl/well, and absorbance was measured at 440 nm using a microplate reader 2 hours later. The mean value of negative control (NC) group treated with only DMSO was calculated as 1 and the cytotoxicity for the remaining experimental group was evaluated.

SMILES | ability to inhibit the binding between PreS1 and NTCP expressing cell lines (bile acid series) [1] | binding between PreS1 and NTCP (green fluorescence imaging) [2] | cytotoxicity (Jurkat cell line) | effect of inhibiting the binding between PreS1 and NTCP expressing cell lines by treatment concentration [1] | relative fluorescence intensity compared to Comparative Example 1 (LCA) [1]
CC[C@@H](C)[C@H](NC(=O)CC[C@@H](C)[C@H]1CC[C@H]2[C@@H]3CC[C@@H]4C[C@H](O)CC[C@]4(C)[C@H]3C[C@H](O)[C@]12C)C(=O)O [Example 10, (2S,3R)-2-((R)-4-((3R,5R,8R,9S,10S,12S,13R,14S,17R)-3,12-dihydroxy-10,13-dimethyl-hexadecahydro-1H-cyclopenta[a]phenanthren-17-yl)pentanamido)-3-methylpentanoic acid] | relatively excellent |  |  |  | 
CC(C)[C@H](NC(=O)CC[C@@H](C)[C@H]1CC[C@H]2[C@@H]3[C@@H](O)C[C@@H]4C[C@H](O)CC[C@]4(C)[C@H]3CC[C@]12C)C(=O)O [Example 3, (S)-2-((R)-4-((3R,5S,7S,8R,9S,10S,13R,14S,17R)-3,7-dihydroxy-10,13-dimethyl-hexadecahydro-1H-cyclopenta[a]phenanthren-17-yl)pentanamido)-3-methylbutanoic acid] | relatively excellent | inhibited in a concentration dependent manner | barely observed |  | 
CC[C@@H](C)[C@H](NC(=O)CC[C@@H](C)[C@H]1CC[C@H]2[C@@H]3[C@@H](O)C[C@@H]4C[C@H](O)CC[C@]4(C)[C@H]3CC[C@]12C)C(=O)O [Example 2, (2S,3R)-2-((R)-4-((3R,5S,7S,8R,9S,10S,13R,14S,17R)-3,7-dihydroxy-10,13-dimethyl-hexadecahydro-1H-cyclopenta[a]phenanthren-17-yl)pentanamido)-3-methylpentanoic acid] | relatively excellent | inhibited in a concentration dependent manner | barely observed |  | 
CC(C)[C@H](NC(=O)CC[C@@H](C)[C@H]1CC[C@H]2[C@@H]3CC[C@@H]4C[C@H](O)CC[C@]4(C)[C@H]3CC[C@]12C)C(=O)O [Example 44, (S)-2-((R)-4-((3R,5R,8R,9S,10S,13R,14S,17R)-3-hydroxy-10,13-dimethyl-hexadecahydro-1H-cyclopenta[a]phenanthren-17-yl)pentanamido)-3-methylbutanoic acid] | relatively excellent | inhibited in a concentration dependent manner | barely observed | concentration dependent | low and lower
CC[C@@H](C)[C@H](NC(=O)CC[C@@H](C)[C@H]1CC[C@H]2[C@@H]3CC[C@@H]4C[C@H](O)CC[C@]4(C)[C@H]3CC[C@]12C)C(=O)O [Example 1, (2S,3R)-2-((R)-4-((3R,5R,8R,9S,10S,13R,14S,17R)-3-hydroxy-10,13-dimethyl-hexadecahydro-1H-cyclopenta[a]phenanthren-17-yl)pentanamido)-3-methylpentanoic acid] | relatively excellent | inhibited in a concentration dependent manner | barely observed | concentration dependent | low and lower

From patent US20260234180A1, “AMINO ACID DERIVATIVE, PREPARATION METHOD THEREFOR, AND PHARMACEUTICAL COMPOSITION FOR TREATING HEPATITIS, COMPRISING SAME” (priority 2021, published 2026)
